“Also recorded” adds a separate entry of the source. Ends that are not written are not given here.
Experiments:
[1] = 3H-heparin binding assay (affinity and capacity); conditions: for Heparin Capacity: heparin bound at saturation; for Kd: read-out: Heparin Affinity
Procedure, shortened: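 Bound 3H-heparin was counted by liquid scintillation after 1 h incubation at 4 °C with fragments immobilised on PVDF-bottomed wells, then washing in blocking buffer. Signal was corrected for BSA-related background, and varying amounts of rBPI23 were used as positive control.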

[2] = tested on: rough mutant E. coli J5 bacteria; assay: Radial diffusion bactericidal assay, E. coli J5; assay type: cell-based; conditions: for bactericidal activity (in words) / pmol added to well to achieve a 30 mm^2 bactericidal zone, E. coli J5: radial diffusion; for bactericidal activity (in words): E. coli J5; for pmol added to well to achieve a 30 mm^2 bactericidal zone, E. coli J5: PROBIT analysis, E. coli J5 (rough)
Procedure, shortened: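 Log-phase bacteria (3 h at 37 °C in tryptic soy broth), washed in 10 mM sodium phosphate pH 7.4, were embedded at 4×10^6 CFU/mL in underlayer agarose. BPI proteolytic fragments (5 or 10 μL) went into 3 mm wells for 3 h at 37 °C, then agarose overlay and overnight 37 °C growth. Clear zones were measured by micrometer.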

[3] = tested on: E. coli 0111:B4 (smooth) bacteria; assay: Radial diffusion bactericidal assay, E. coli 0111:B4; assay type: cell-based; conditions: radial diffusion; for bactericidal activity (in words): E. coli 0111:B4; for pmol added to well to achieve a 30 mm^2 bactericidal zone, E. coli O111:B4: PROBIT analysis, E. coli O111:B4 (smooth)
[4] = Lipid A binding competition with [125I]-rLBP; conditions: for IC50: read-out: IC50 (inhibition of Lipid A binding of radiolabeled rLBP)
Method: A second binding assay was developed, wherein radiolabeled recombinant LPS binding protein ([^125I]-rLBP) was used instead of radiolabeled rBPI23 in competition experiments with BPI functional domain peptides BPI.2, BPI.3, BPI.4, BPI.5, BPI.7, BPI.13, BPI.14, BPI.29, BPI.30 and BPI.48, rBPI, rBPI21Δcys, and rLBP25 were included in these assays as controls. In these experiments, Lipid A was adsorbed to the wells at a concentration of 0.7 μg/mL in methanol. Incubation of radiolabeled rLBP (a total of 650,000 cpm and a specific activity of 3.45 μCi/μg) was performed for 2.5 hr at 37° C. in the presence of BPI peptides in a series of increasing concentrations. IC50 values (i.e., the concentration at which Lipid A binding of radiolabeled rLBP25 is inhibited to one half the value achieved in the absence of the peptide) are shown in accompanying Table XI.

RAW 264.7 cells = assay: LPS neutralization cellular proliferation assay, RAW 264.7 cells; assay type: cell-based, mouse
Procedure, shortened: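 Mouse RAW 264.7 cells were primed 24 h with 50U/mL mouse γ-interferon, then exposed about 15 h to E. coli O113 LPS in serum-free RPMI with or without BPI peptides at 25 ng/mL–50 μg/mL. Proliferation was quantified by [^3H]-thymidine uptake, 1 μCi/well, added at 5 h.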

Staphylococcus aureus = assay: Radial diffusion bactericidal assay, Staphylococcus aureus; assay type: cell-based; conditions: for pmol added to well to achieve a 30 mm^2 bactericidal zone, S. aureus: radial diffusion, PROBIT analysis; for bactericidal activity (in words): FIG. 10e
E. coli strain 07-K1 = assay: Radial diffusion bactericidal assay, E. coli 07-K1; assay type: cell-based; conditions: FIG. 10c
Method: BPI proteolytic fragments produced according to Example 1 were screened for bactericidal effects using rough mutant E. coli J5 bacteria in a radial diffusion assay. Specifically, an overnight culture of E. coli J5 was diluted 1:50 into fresh tryptic soy broth and incubated for 3 hours at 37° C. to attain log phase growth of the culture. Bacteria were then pelleted at 3,000 rpm for 5 minutes in a Sorvall RT6000B centrifuge (Sorvall Instruments, Newton, Conn.). 5 mL of 10 mM sodium phosphate buffer (pH 7.4) was added and the preparation was re-pelleted. […] The bacteria were diluted to 4×10^6 CFU/mL in 10 mL of molten underlayer agarose (at approximately 45° C.) and inverted repeatedly to mix in 15 mL polypropylene tubes conventionally used for this purpose.
The entire contents of such tubes were then poured into a level square petri dish and distributed evenly by rocking the dish side-to-side. […] A series of wells were then punched into the hardened agarose using a sterile 3 mm punch attached to a vacuum apparatus. The punch was sterilized with 100% alcohol and allowed to air dry prior to use to avoid contaminating the bacterial culture.
5 or 10 μL of each of the BPI fragments were carefully pipetted into each well. As a negative control, dilution buffer (pH 8.3) was added to a separate well, and rBPI23 at concentrations of 5 μg/mL and 1 μg/mL were also added as positive controls. Each plate was incubated at 37° C. for 3 hours, and then 10 mL of molten overlayer agarose (at approximately 45° C.) was added into the level petri dish, allowed to harden and incubated overnight at 37° C. […] The bacterial zones were measured with a micrometer.
Additional experiments were performed using various other bacteria as target cells to examine the range of bactericidal killing of these BPI functional domain peptides.

| Substance | heparin binding activity (in words) [1] | Heparin Capacity [1] | Kd [1] | bactericidal activity (in words) [2] | pmol added to well to achieve a 30 mm^2 bactericidal zone, E. coli J5 [2] | bactericidal activity (in words) [3] | pmol added to well to achieve a 30 mm^2 bactericidal zone, E. coli O111:B4 [3] | IC50 (inhibition of Lipid A binding of radiolabeled rLBP) [4] | IC50 [4] | heparin binding capacity (in words) [1] | EC50 (peptide concentration at which the growth inhibitory effect of LPS was reversed by 50%) (RAW 264.7 cells) | IC50 (peptide concentration at which RAW cell growth was inhibited by 50%) (RAW 264.7 cells) | pmol added to well to achieve a 30 mm^2 bactericidal zone, S. aureus (Staphylococcus aureus) | bactericidal activity (in words) (Staphylococcus aureus) | bactericidal activity (in words) (E. coli strain 07-K1) | concentration above which appreciable bactericidal activity was shown [2] |
| --- | --- | --- | --- | --- | --- | --- | --- | --- | --- | --- | --- | --- | --- | --- | --- | --- |
| NVGLKFSISNANIKISGKWKAQKRFLK [BPI.3] | moderate heparin binding activity | 264.5 ng | 781 nM | exhibited bactericidal activity | 695.78 pmol | exhibited bactericidal activity | b (no detectable activity up to 5 μg/well) | 0.75 µg/mL | 250 nM |  |  |  |  |  |  |  |
| KWKAAARFLKKWKAAARFLK [BPI.48] |  | 442.3 ng | 1420 nM | highly bactericidal | 42.40 pmol |  | 253.54 pmol | 0.48 µg/mL | 200 nM | extremely high heparin capacity | 1.3 ± 0.9 µg/mL | 5.0 ± 0.1 µg/mL | 4,089.14 pmol |  |  |  |
| KWKAQKRFLKKWKAQKRFLK-NH2 (C-terminus assumed) [BPI.7] |  | 405.6 ng | 908 nM | exhibited bactericidal activity; also recorded: high levels of bactericidal activity; also recorded: highly bactericidal | 175.40 pmol | exhibited bactericidal activity | 2,072.10 pmol | 0.26 µg/mL | 100 nM | extremely high heparin binding capacity | >50 µg/mL |  | 3,769.60 pmol | low levels of activity | high levels of bactericidal activity |  |
| KSKVGWLIQLFHKKKSKVGWLIQLFHKK-NH2 (C-terminus assumed) [BPI.29] |  | 463.7 ng | 427 nM | greater bactericidal activity; also recorded: highly bactericidal | 441.60 pmol |  |  | 0.44 µg/mL | 130 nM | extremely high heparin capacity | 0.1 ± 0.02 µg/mL | 13.6 ± 0.4 µg/mL | 15,508.98 pmol | moderate levels of activity | moderate bactericidal activity |  |
| KSKVGWLIQLFHKK-NH2 (C-terminus assumed) [BPI.13] |  | 369.1 ng | 984 nM |  | 440.80 pmol |  | 5,857.40 pmol | 1.7 µg/mL | 1000 nM |  | 1.9 ± 0.4 µg/mL |  | 5,341.27 pmol | low levels of activity | low levels of bactericidal activity | greater than 30 μg/mL |
| IKISGKWKAQKRFLK [BPI.2] | little or no heparin binding activity | 203.6 ng | 346 nM |  | 3,001.50 pmol | exhibited bactericidal activity | b (no detectable activity up to 5 μg/well) | 2.36 µg/mL | 1300 nM | low heparin binding capacity |  | — (No proliferation decrease up to 50 μg/ml) | b (no detectable activity up to 5 μg/well) |  |  |  |
| KWKAQKRFLKKSKVGWLIQLFHKK-NH2 (C-terminus assumed) [BPI.30] |  | 499.4 ng | 592 nM | highest bactericidal activity; also recorded: highly bactericidal | 76.38 pmol |  | 608.20 pmol | 0.75 µg/mL | 250 nM | extremely high heparin capacity | 1.2 ± 1.1 µg/mL | 10.5 ± 1.2 µg/mL | 1,216.37 pmol | highest amount of bactericidal activity | high levels of bactericidal activity |  |
